Reference: patent publication US20070225330A1, “USE OF CERTAIN PHENYL-NAPHTHYL COMPOUNDS THAT DO NOT HAVE SIGNIFICANT AFFINITY TO ER ALPHA OR ER BETA FOR PROTECTION OF NEURONS AND OLIGODENDROCYTES IN THE TREATMENT OF MULTIPLE SCLEROSIS” (AVENTIS PHARMACEUTICALS INC., priority 2004, published 2007)

Legend:
[1] = system: Primary rat oligodendrocyte progenitor cells; experiment: Oligodendrocyte toxicity assay (LDH release, protection against toxin-induced toxicity); format: cell-based; settings: compound pretreatment 1 hour, LDH after 24 hours; for Oligodendrocyte progenitor protection against Camptothecin: Camptothecin 10 μM; for Oligodendrocyte progenitor protection against SIN-1: SIN-1 10 mM
Procedure: Oligodendrocyte Toxicity Assay
Primary rat oligodendrocyte progenitor cells were obtained from the cerebra of 2-3 day old postnatal rats (Sprague Dawley). The meninges were removed and tissue was mechanically dissociated. Cells were plated on T75 flasks and fed with DMEM+10% FBS.
Enriched OLPs were collected by mechanical separation from the astrocytic monolayer and were expanded in serum free media (SFM) supplemented with the mitogens, PDGF-AA (10 ng/ml) and FGF-2 (10 ng/ml).
To generate mature oligodendrocytes, progenitor cells were switched to SFM supplemented with IGF-1 (10 ng/ml) 24 hours after plating and cells were grown under these conditions for 7 days prior to experimental assays.
Cells were plated in 96-well plates, 10,000 per well. Medium was changed to fresh medium and cells were pretreated with compounds for 1 hour. Toxins were added to give the following final concentrations:
After 24 hours, medium was removed and assayed for LDH activity using the Promega cytotox 96 kit (catalog #G1780). Results were calculated as percent protection against toxin-induced toxicity.

ER α = target: T1, ER α (Homo sapiens, UniProt P03372); experiment: Affinity for ER receptors (α); format: binding; settings: unit not given
T1 sequence (P03372 1-595): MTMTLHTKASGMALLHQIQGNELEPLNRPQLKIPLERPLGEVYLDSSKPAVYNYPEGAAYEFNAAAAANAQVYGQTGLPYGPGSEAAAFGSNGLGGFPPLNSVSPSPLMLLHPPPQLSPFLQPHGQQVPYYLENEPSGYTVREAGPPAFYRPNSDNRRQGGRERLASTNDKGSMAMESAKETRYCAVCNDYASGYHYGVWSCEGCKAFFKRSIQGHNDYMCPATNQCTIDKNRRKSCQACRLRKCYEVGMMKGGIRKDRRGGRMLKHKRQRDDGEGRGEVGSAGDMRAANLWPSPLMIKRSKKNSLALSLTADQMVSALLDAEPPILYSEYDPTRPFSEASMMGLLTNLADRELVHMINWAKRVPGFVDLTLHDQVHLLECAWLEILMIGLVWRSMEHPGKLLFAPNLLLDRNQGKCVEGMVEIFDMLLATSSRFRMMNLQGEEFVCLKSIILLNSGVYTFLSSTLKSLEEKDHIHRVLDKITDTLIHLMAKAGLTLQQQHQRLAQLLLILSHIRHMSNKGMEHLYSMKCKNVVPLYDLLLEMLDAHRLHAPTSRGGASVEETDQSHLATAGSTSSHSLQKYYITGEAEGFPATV

ER β = ER β (Homo sapiens, UniProt Q92731); experiment: Affinity for ER receptors (β); format: binding; settings: unit not given
Sequence of ER β (Q92731 whole entry): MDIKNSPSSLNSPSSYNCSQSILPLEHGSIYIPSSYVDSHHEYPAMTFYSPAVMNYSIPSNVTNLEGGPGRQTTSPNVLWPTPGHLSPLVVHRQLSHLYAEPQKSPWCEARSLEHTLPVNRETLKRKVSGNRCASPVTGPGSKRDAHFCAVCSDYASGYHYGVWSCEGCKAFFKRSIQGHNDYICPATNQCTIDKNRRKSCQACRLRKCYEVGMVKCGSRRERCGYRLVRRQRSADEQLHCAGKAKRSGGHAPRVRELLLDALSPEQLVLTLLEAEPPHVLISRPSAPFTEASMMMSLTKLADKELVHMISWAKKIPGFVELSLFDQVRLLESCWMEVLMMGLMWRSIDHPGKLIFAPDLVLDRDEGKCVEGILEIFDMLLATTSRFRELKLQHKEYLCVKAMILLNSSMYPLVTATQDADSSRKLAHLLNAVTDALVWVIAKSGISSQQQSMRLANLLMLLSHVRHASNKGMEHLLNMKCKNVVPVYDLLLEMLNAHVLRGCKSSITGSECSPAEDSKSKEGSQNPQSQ

SMILES	Oligodendrocyte progenitor protection against Camptothecin [1]	Oligodendrocyte progenitor protection against SIN-1 [1]	Affinity for ER receptors* α (ER α)	Affinity for ER receptors* β (ER β)
Oc1ccc(-c2ccc3cc(O)ccc3c2Cl)cc1 [Compound 4, 5-chloro-6-(4-hydroxyphenyl)-2-naphthalenol]	Effective	Effective	35.4	3
Oc1ccc(-c2ccc3cc(O)ccc3c2)cc1 [Compound 7, 6-(4-Hydroxy-phenyl)-2-naphthalenol]	Effective	Effective	408	14.7
COc1ccc(-c2sc3cc(O)ccc3c2Oc2ccc(OCCN3CCCCC3)cc2)cc1 [Compound 10, Arzoxifen]	Very effective	Very effective		
C[C@@]12CCc3cc(O)ccc3[C@H]1CC[C@@]1(C)[C@H]2CC[C@@H]1O [Compound 11, Estrogen]	Effective	Effective	1.17	6.1
